The values that follow come from patent publication US9399635B2, “Pyrazole derivative” (GREEN TECH CO., LTD., priority 2011, dated 2016).

What all share (format): biochemical
Assay [1] concerns the target T1, recombinant human β-secretase (Homo sapiens, UniProt P56817).
T1 construct: purchased Invitrogen
Kind of assay: Determination of β-secretase inhibitory activity (BACE-1 FRET assay Kit). The note with it: recombinant human β-secretase, fluorescent substrate peptide, 1 hour; read-out: IC50 (μM) Test example 2 (β-secretase inhibitory activity). As to the method:
Pharmacological Test Example 2: Determination of β-Secretase Inhibitory Activity
The β-secretase inhibitory activity was measured with BACE-1 FRET assay Kit (Invitrogen). The test compounds were prepared using DMSO at 30-fold of their final concentrations and dissolved so that the DMSO concentration would be 10%. To each of the solutions, an equal volume of a recombinant human β-secretase (1 U/mL) dissolved in the assay buffer and an equal volume of fluorescent substrate peptide (2.5 nM) were added and the solutions were left to stand for 1 hour. The fluorescence intensity was measured with a fluorescence plate reader (excitation wavelength: 545 nm; emission wavelength: 590 nm).
The final concentration of each compound at the time of measurement was set at 0.1, 0.3, 1, 3, and 10 μM, at 0.3, 1, 3, 10, and 30 μM, or at 1, 3, 10, 30, and 100 μM.

The next assay has as its target T2, Aβ 1-42 (Homo sapiens, UniProt P05067).
T2 construct: Aβ 1-42 (Peptide Institute, Inc.) was dissolved in 0.3% ammonia water; purchased Peptide Institute, Inc
Kind of assay: Determination of Aβ aggregation inhibitory activity (thioflavin T fluorescence). The note with it: Aβ 1-42, 37° C. for 24 hours, thioflavin T; read-out: IC50 (μM) Test example 3 (Aβ aggregation inhibitory activity). As to the method: Pharmacological test example 3: Determination of Aβ aggregation inhibitory activity
Aβ 1-42 (Peptide Institute, Inc.) was dissolved in 0.3% ammonia water so that the concentration would be 0.5 mM and then diluted with PBS to 20 μM. The test compounds were prepared using DMSO at 100-fold of their final concentrations and adjusted so that the DMSO concentration would be 2%. The Aβ solution and each of the test compound solutions were mixed at an equivalent ratio and the mixtures were incubated at 37° C. for 24 hours. To each of the mixtures, an equal volume of a thioflavin T solution adjusted with a 100 mM Tris-glycine buffer (pH 8.5) to 6 μM was added. The fluorescence intensity was measured with a fluorescence plate reader (excitation wavelength: 440 nm; emission wavelength: 480 nm).
(§1) The final concentration of each compound at the time of measurement was set at 0.1, 0.3, 1, 3, and 10 μM. The sample to which only DMSO was added was used as a negative control and its fluorescence intensity was taken as 0% inhibitory activity.

The target of assay [2] is recombinant three-repeat microtubule-binding domain (3R-MBD) of tau protein (Homo sapiens, UniProt P10636). Kind of assay: Determination of tau aggregation inhibitory activity (heparin-induced, thioflavin T fluorescence; electron microscope). As to the method:
Pharmacological Test Example 1: Determination of Tau Aggregation Inhibitory Activity
A recombinant three-repeat microtubule-binding domain (3R-MBD) of tau protein was expressed in E. coli and was purified and used for the experiment. The purified tau solution was diluted with a 50 mM Tris-HCl buffer (pH 7.6) to a final concentration of 10 μM. The test compounds were prepared using dimethylsulfoxide (DMSO) at 20-fold of their final concentrations and added to the plate so that the DMSO concentration would be 5%. Heparin was added to the plate so that the final concentration would be 10 μM and the plate was left to stand at 37° C. for 16 hours. Thioflavin T was added to the plate so that the concentration would be 10 μM and the fluorescence intensity was measured with a fluorescence plate reader (PerkinElmer, Inc.) (excitation wavelength: 440 nm; emission wavelength: 480 nm).
as §1
The samples were placed on a grid and washed with distilled water. A 1 mM phosphotungstic acid aqueous solution was added to the samples. The samples were washed, dried overnight, and observed.

recombinant three-repeat microtubule-binding domain (3R-MBD) of tau protein, sequence (P10636 186-279 isoform P10636-2 limits assumed): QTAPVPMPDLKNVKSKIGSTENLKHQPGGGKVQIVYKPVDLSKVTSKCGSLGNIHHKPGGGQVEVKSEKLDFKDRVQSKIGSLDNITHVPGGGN
T1 sequence (P56817 46-501): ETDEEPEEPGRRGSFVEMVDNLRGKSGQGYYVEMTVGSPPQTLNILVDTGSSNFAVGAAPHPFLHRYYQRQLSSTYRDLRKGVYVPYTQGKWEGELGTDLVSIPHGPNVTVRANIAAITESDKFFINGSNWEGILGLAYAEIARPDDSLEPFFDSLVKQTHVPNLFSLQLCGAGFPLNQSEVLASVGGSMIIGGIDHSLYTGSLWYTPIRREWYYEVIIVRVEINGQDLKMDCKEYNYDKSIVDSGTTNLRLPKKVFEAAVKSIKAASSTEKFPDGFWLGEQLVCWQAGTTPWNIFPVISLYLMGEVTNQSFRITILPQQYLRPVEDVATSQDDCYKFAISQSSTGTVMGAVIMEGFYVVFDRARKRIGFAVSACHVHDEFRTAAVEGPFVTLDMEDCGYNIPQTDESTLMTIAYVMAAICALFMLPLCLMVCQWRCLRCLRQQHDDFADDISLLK
T2 sequence (P05067 672-713): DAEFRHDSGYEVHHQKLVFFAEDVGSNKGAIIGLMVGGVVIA

In the case of `COc1cc(OCc2ccccn2)ccc1/C=C/c1cc(/C=C/c2ccc3cc[nH]c3c2)[nH]n1` [Example 2, 3-[(1E)-2-(1H-indol-6-yl)ethenyl]-5-[(1E)-2-[2-methoxy-4-(2-pyridylmethoxy)phenyl]ethenyl]-1H-pyrazole], the IC50 – broadly, the midpoint of a concentration-inhibition curve – in assay [1] stood at 3 µM; at Aβ 1-42 it was 1.5 µM; in assay [2] (3R-MBD tau 10 μM, heparin 10 μM, 37° C. for 16 hours, thioflavin T, read-out: IC50 (μM) Test example 1 (tau aggregation inhibitory activity)), 0.92 µM. The “tau aggregate formation observed with an electron microscope” value in assay [2] (0.1 μM and 1 μM, compared with DMSO only (FIG. 1)) is on record as “less tau aggregate formation”.
